“And” between values parts separate entries of the source, which are not always exact repeats. Equal entries are not always repeated. Each block holds one molecule with its values, some of them ahead of it.
Tests used:
USP7 = settings: cited from earlier work; for potency and specificity for USP7: recently reported USP7 inhibitors
hUSP7CD = target: T1, hUSP7CD (Homo sapiens, UniProt Q93009); test: Ub-AMC enzymatic inhibition assay, hUSP7CD; assay type: biochemical
T1 construct: Swiss Prot entry: Q93009, residues 208–560; His6 (N); made in house; host or cells: E. coli BL21 (DE3) codon plus RIL
T1 sequence (Q93009 208-560): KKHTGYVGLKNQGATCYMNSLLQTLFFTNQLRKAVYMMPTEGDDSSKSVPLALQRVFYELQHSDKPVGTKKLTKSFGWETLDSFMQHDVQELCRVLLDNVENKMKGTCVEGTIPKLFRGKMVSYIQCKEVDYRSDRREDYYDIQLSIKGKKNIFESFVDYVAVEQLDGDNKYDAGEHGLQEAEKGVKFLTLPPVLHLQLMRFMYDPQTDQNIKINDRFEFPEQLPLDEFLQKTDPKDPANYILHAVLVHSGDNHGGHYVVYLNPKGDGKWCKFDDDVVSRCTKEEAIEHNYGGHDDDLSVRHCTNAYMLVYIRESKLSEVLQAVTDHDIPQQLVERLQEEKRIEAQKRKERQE
Experimental: (§2) Enzymes and substrates were diluted in the reaction buffer (20 mM HEPES, pH 7.4, 150 mM NaCl, and 5 mM DTT) to a concentration of 5 μM for the substrate and 0.5 μM for the enzymes. […] USP enzymatic activity and inhibition assays were measured at room temperature using the cleavage-sensitive fluorogenic substrate Ub-AMC (Boston Biochem, U-550). […] The AMC fluorescence emission was monitored at 460 nm (excitation at 380 nm) for 30–60 min using a SpectraMax M3 plate reader (Molecular Devices). […] The data were fitted using GraphPad Prism 7 (GraphPad Inc.). Fluorescence intensity was recorded every 45 s for 90 min. Data are presented as the mean ± SD (n = 3).

cUSP47CD^A416NA417H = test: Ub-AMC enzymatic inhibition assay, cUSP47CD^A416NA417H; assay type: biochemical, Caenorhabditis elegans; settings: FT671 5 μM, Fig. 5d
Experimental: (§1) Enzymes and substrates were diluted in the reaction buffer (20 mM HEPES, pH 7.4, 150 mM NaCl, and 5 mM DTT) to a concentration of 5 μM for the substrate and 0.5 μM for the enzymes. At the indicated time points following the reaction initiation, 10 μL reaction aliquots were taken and the reaction was stopped by adding SDS sampling buffer and analyzed using SDS-PAGE. Then, the 4–15% gradient gel was stained with Coomassie Brilliant Blue R-250. USP enzymatic activity and inhibition assays were measured at room temperature using the cleavage-sensitive fluorogenic substrate Ub-AMC (Boston Biochem, U-550). The deubiquitination assay was performed following the protocol by Ernst et al.[30]. Briefly, enzyme activity assays were performed in assay buffer in 20 mM HEPES (pH 7.4), 100 mM NaCl, and 5 mM DTT) containing cUSP47CD (in 50 nM), hUSP47CD-UBL12 (in 100 nM) or hUSP7CD (in 100 nM) constructs and serial dilutions of Ub-AMC (final 35 μM). The AMC fluorescence emission was monitored at 460 nm (excitation at 380 nm) for 30–60 min using a SpectraMax M3 plate reader (Molecular Devices). […] The data were fitted using GraphPad Prism 7 (GraphPad Inc.). Fluorescence intensity was recorded every 45 s for 90 min. Data are presented as the mean ± SD (n = 3).

cUSP47CD^R309N = test: Ub-AMC enzymatic inhibition assay, cUSP47CD^R309N; assay type: biochemical, Caenorhabditis elegans; settings: FT671 5 μM, Fig. 5d
Experimental: as §1

cUSP47CD = cUSP47CD (Caenorhabditis elegans, UniProt Q22240); test: Ub-AMC enzymatic inhibition assay, cUSP47CD; assay type: biochemical; design: Residual enzymatic activity, cUSP47CD_IC50(p50429): unit not given here
Chain of cUSP47CD (Q22240 entry or part of it): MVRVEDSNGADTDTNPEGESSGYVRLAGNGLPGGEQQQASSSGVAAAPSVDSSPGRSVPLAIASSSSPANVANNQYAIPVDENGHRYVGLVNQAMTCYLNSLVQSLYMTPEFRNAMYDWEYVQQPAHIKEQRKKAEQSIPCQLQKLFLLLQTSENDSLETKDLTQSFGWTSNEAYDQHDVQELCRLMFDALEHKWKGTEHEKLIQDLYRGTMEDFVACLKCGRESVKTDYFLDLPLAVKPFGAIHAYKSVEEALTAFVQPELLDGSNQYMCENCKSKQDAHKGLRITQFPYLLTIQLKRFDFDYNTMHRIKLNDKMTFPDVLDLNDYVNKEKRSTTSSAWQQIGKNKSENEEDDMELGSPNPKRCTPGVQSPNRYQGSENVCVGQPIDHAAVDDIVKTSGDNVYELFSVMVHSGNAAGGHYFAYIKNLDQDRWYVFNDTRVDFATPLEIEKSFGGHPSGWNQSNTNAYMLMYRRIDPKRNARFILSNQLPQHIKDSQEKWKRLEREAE
Experimental: as §1

hUSP7CD^N460AH461A = target: T2, hUSP7CD^N460AH461A (Homo sapiens, UniProt Q93009, H461A/N460A); test: Ub-AMC enzymatic inhibition assay, hUSP7CD^N460AH461A; assay type: biochemical; settings: FT671 5 μM, Fig. 5d
T2 construct: Swiss Prot entry: Q93009, residues 208–560; His6 (N); made in house; host or cells: E. coli BL21 (DE3) codon plus RIL
T2 sequence (Q93009 208-560 N460A/H461A): as the sequence (Q93009 208-560) above, with N253A, H254A counted along it
Experimental: as §2

cUSP47CD^R309NA416NA417H = test: Ub-AMC enzymatic inhibition assay, cUSP47CD^R309NA416NA417H; assay type: biochemical, Caenorhabditis elegans; settings: FT671 5 μM, Fig. 5d, compared with the double mutant
Experimental: as §1

[1] = tested on: multiple myeloma xenograft models; settings: in vitro and in vivo multiple myeloma xenograft models; cited from earlier work
USP47 = settings: cited from earlier work
Flag-USP7 = target: T3, Flag-USP7 (Homo sapiens, UniProt Q93009); test: Immunoprecipitation and DUB assay with K48-linked ubiquitin chains, Flag-USP7 from treated HEK293T cells; assay type: cell-based; settings: HEK293T cells treated for 2 h, immunoprecipitated Flag-USP7, Fig. 2f
T3 construct: expressed in transfected cells; host or cells: HEK293T
T3 sequence (Q93009 whole entry): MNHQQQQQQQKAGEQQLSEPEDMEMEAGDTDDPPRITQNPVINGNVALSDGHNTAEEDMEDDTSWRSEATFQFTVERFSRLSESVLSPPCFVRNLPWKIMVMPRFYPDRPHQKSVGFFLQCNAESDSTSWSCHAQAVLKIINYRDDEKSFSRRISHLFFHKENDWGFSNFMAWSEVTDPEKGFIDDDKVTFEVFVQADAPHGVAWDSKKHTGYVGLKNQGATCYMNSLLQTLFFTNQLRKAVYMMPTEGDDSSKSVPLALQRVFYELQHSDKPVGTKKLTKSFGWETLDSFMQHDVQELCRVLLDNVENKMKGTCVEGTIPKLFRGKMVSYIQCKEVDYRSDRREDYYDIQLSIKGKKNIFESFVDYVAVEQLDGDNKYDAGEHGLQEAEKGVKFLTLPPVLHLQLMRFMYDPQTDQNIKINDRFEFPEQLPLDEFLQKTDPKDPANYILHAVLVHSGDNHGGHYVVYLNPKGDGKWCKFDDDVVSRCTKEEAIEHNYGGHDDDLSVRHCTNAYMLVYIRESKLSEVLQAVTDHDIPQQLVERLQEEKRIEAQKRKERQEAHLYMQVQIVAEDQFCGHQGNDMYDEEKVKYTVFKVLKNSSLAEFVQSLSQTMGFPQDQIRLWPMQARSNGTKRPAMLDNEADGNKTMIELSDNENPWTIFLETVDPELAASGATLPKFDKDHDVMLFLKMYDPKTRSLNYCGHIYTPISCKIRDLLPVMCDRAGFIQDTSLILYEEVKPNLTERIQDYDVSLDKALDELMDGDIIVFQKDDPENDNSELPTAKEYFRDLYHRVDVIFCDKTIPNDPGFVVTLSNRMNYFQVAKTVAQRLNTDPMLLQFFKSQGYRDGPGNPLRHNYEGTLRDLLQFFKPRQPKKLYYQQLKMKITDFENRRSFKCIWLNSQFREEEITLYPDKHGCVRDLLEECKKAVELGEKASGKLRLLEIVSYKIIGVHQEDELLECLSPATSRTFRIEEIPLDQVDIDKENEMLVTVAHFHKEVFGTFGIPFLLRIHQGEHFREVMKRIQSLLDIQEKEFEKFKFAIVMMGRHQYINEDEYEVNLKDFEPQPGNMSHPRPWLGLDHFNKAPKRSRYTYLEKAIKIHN
Experimental: Fig. 2 Biochemical properties of USP47. a Domain structure of USP47 and the constructs used in this study. b HEK293T cells were transfected with USP Flag-tagged mutants. […] The IC50 values were determined in triplicate and fitted to a four-parameter logistic dose-response curve. Data are expressed as means ± SD.
HEK293T cells transfected with pFlag-CMV-2 vector, pFlag-USP7, or pFlag-USP47 were treated with drugs, as indicated, and lysed by protein lysis buffer (20 mM Tris–Cl, 150 mM NaCl, 1 mM EDTA, 1 mM EGTA, 1% Triton X-100, 2.5 mM sodium pyrophosphate, 50 mM NaF, 5 mM β-glycerophosphate, 1 mM Na3VO4, 1x protease inhibitor, pH 7.5). […] Flag affinity gel was washed 5 times with lysis buffer and the supernatant was removed carefully with a syringe after the last wash step. For elution, Flag agarose was incubated with 3× Flag peptide (Sigma Aldrich) in elution buffer (15 μg of Flag peptide in 50 μl of lysis buffer) for 30 min at 4 °C. The supernatants were collected as immunoprecipitates. […] Samples were analyzed by Western blot and detected with the anti-ubiquitin antibody.

Compound: O=C(C[C@@H](C(F)F)n1ccc(F)n1)N1CCC(O)(Cn2cnc3c(cnn3-c3ccc(F)cc3)c2=O)CC1 [FT671]
potency and specificity for USP7 (USP7): high potency and specificity only for USP7 | inhibition of USP7 wild type by FT671 (hUSP7CD; FT671 5 μM, Ub-AMC, Fig. 5d): complete inhibition | reduction in the activity of cUSP47CD^A416NA417H with FT671 (cUSP47CD^A416NA417H): ~40% | change in activity of cUSP47CD^R309N with FT671 (cUSP47CD^R309N): no change in the activity | Enzyme activity cUSP47CD+FT671 relative to cUSP47CD without FT671 (=100) (cUSP47CD; FT671 5 μM, Ub-AMC 35 μM, mean and three replicates, 5 µM): 108.41 and 98.6437 and 106.057 | remaining activity at 5 µM (cUSP47CD; FT671 5 μM, Ub-AMC 35 μM, mean and three replicates, read-out: Enzyme activity cUSP47CD+FT671 relative to cUSP47CD without FT671 (=100)): 104% | inhibition of cUSP47CD wild type by FT671 (cUSP47CD; FT671 5 μM, Ub-AMC, Fig. 5d): no inhibition | reduction in the activity of hUSP7CD^N460AH461A in the presence of FT671 (hUSP7CD^N460AH461A): ~ 80% | inhibition of cUSP47CD^R309NA416NA417H by FT671 (cUSP47CD^R309NA416NA417H): even more inhibition

Compound: CCc1c(-c2ccc(C(=O)NC)nc2)cnc(N)c1-c1ccc(O)cc1 [GNE6776]
potency and specificity for USP7 (USP7): high potency and specificity only for USP7

Compound: CC(=O)c1cc([N+](=O)[O-])c(Sc2cccc(Cl)c2Cl)s1 [P5091, 1-[5-(2,3-dichlorophenylsulfanyl)−4-nitro-2thienl]ethanone]
IC50 (USP7; read-out: IC50 USP7): 4.2 µM | antitumor efficacy [1]: antitumor efficacy | IC50 (USP47): 4.3 µM

IC50 (hUSP7CD): 5.3 ± 1 µM | IC50 (cUSP47CD; Ub-AMC, USP47 50 nM, 10 min at 25 °C, triplicate, mean ± SD): 1.4 ± 0.2 µM | Residual enzymatic activity, cUSP47CD_IC50(p50429) (cUSP47CD; inhibitor concentration 0.0244141, three replicates, 0.0244141 µM): 98.3931 and 102.68 | remaining activity at 0.0244141 µM (cUSP47CD; inhibitor concentration 0.0244141, three replicates, read-out: Residual enzymatic activity, cUSP47CD_IC50(p50429)): 106% | Residual enzymatic activity, cUSP47CD_IC50(p50429) (cUSP47CD; inhibitor concentration 0.0488281, three replicates, 0.0488281 µM): 94.8604 and 95.1269 | remaining activity at 0.0488281 µM (cUSP47CD; inhibitor concentration 0.0488281, three replicates, read-out: Residual enzymatic activity, cUSP47CD_IC50(p50429)): 100% | Residual enzymatic activity, cUSP47CD_IC50(p50429) (cUSP47CD; inhibitor concentration 0.0976562, three replicates, 0.0976562 µM): 90.0141 and 90.4933 | remaining activity at 0.0976562 µM (cUSP47CD; inhibitor concentration 0.0976562, three replicates, read-out: Residual enzymatic activity, cUSP47CD_IC50(p50429)): 86.3% | Residual enzymatic activity, cUSP47CD_IC50(p50429) (cUSP47CD; inhibitor concentration 0.195312, three replicates, 0.195312 µM): 70.9575 and 84.4737 | remaining activity at 0.195312 µM (cUSP47CD; inhibitor concentration 0.195312, three replicates, read-out: Residual enzymatic activity, cUSP47CD_IC50(p50429)): 90.3% | Residual enzymatic activity, cUSP47CD_IC50(p50429) (cUSP47CD; inhibitor concentration 0.390625, three replicates, 0.390625 µM): 71.1433 and 81.3617 | remaining activity at 0.390625 µM (cUSP47CD; inhibitor concentration 0.390625, three replicates, read-out: Residual enzymatic activity, cUSP47CD_IC50(p50429)): 83.2% | Residual enzymatic activity, cUSP47CD_IC50(p50429) (cUSP47CD; inhibitor concentration 0.78125, three replicates, 0.78125 µM): 64.5756 and 70.9586 | remaining activity at 0.78125 µM (cUSP47CD; inhibitor concentration 0.78125, three replicates, read-out: Residual enzymatic activity, cUSP47CD_IC50(p50429)): 71.1% | Residual enzymatic activity, cUSP47CD_IC50(p50429) (cUSP47CD; inhibitor concentration 1.5625, three replicates, 1.5625 µM): 47.6458 and 50.9074 | remaining activity at 1.5625 µM (cUSP47CD; inhibitor concentration 1.5625, three replicates, read-out: Residual enzymatic activity, cUSP47CD_IC50(p50429)): 52.3% | Residual enzymatic activity, cUSP47CD_IC50(p50429) (cUSP47CD; inhibitor concentration 3.125, three replicates, 3.125 µM): 23.3806 and 22.8255 | remaining activity at 3.125 µM (cUSP47CD; inhibitor concentration 3.125, three replicates, read-out: Residual enzymatic activity, cUSP47CD_IC50(p50429)): 24.7% | Residual enzymatic activity, cUSP47CD_IC50(p50429) (cUSP47CD; inhibitor concentration 6.25, three replicates, 6.25 µM): 13.3082 and 13.4812 | remaining activity at 6.25 µM (cUSP47CD; inhibitor concentration 6.25, three replicates, read-out: Residual enzymatic activity, cUSP47CD_IC50(p50429)): 23% | Residual enzymatic activity, cUSP47CD_IC50(p50429) (cUSP47CD; inhibitor concentration 12.5, three replicates, 12.5 µM): 11.6652 and 7.474 | remaining activity at 12.5 µM (cUSP47CD; inhibitor concentration 12.5, three replicates, read-out: Residual enzymatic activity, cUSP47CD_IC50(p50429)): 11.3% | Residual enzymatic activity, cUSP47CD_IC50(p50429) (cUSP47CD; inhibitor concentration 25, three replicates, 25 µM): 6.001 and 6.389 | remaining activity at 25 µM (cUSP47CD; inhibitor concentration 25, three replicates, read-out: Residual enzymatic activity, cUSP47CD_IC50(p50429)): 7.06% | Residual enzymatic activity, cUSP47CD_IC50(p50429) (cUSP47CD; inhibitor concentration 50 (0–50 μM series), three replicates, 50 µM): 4.2047 and -1.497 and -1.461 | DUB activity on K48-linked ubiquitin chains (Flag-USP7): inhibited the DUB activity
Compound: CS(=O)(=O)c1ccc(NC(=O)c2cc(C#N)c(Sc3c(Cl)cncc3Cl)s2)cc1 [P50429]

Compound: C=C1C(=O)O[C@H]2[C@H]1CC/C(C)=C/CC[C@@]1(C)O[C@@H]21 [Parthenolide]
inhibition of USP7 (USP7): can also inhibit both DUBs | inhibition of USP47 (USP47): can also inhibit both DUBs

From PMC10516900 (Communications Biology, 2023)
